The record followed here is patent US6436705B1, “Shape stabilized erythrocytes” (The United States of America as represented by the …, priority 1997, dated 2002).

In assay [1] the test system is Human erythrocytes. The assay is described as follows: 'gravity-driven' filtration assay of erythrocyte deformability (5 μm pore filter). The assay is classed as cell-based. On the procedure: The deformability of erythrocytes after crosslinking with diamide and its reversal with dithioerythritol is measured using a “gravity-driven” filtration assay. Diluted erythrocyte suspensions are passed through a 5 μm pore filter The relative filtration index is determined using the following expression: [formula] […] Human erythrocytes subjected to crosslinking with diamide and subsequent reversal of the crosslinking dithioeiythritol were passed through a 5 μm pore filter. Relative filtration index was determined.

For assay [2], the system named is Human erythrocytes. Description: Freeze-thaw damage (percentage hemolysis after freezing at −20° C.). Format: cell-based. Conditions: 5 mM diamide for 1 h at room temperature; 1 h freezing at −20° C.; FIG. 2. The protocol: Erythrocytes pre-treated with diamide were frozen immediately or after 3 h of incubation in the freezing medium (glucose 200 mM, raffinose 139 mM, sodium citrate 33 mM, sodium phosphate dibasic 12 mM, sodium phosphate monobasic 2.9 mM, ammonium phosphate 40 mM, adenine 2 mM) to allow loading with glucose. Freezing was carried out at −20° C. in a freezer for […] and samples were thawed in a water bath at room temperature.
After completion of the freeze-thaw cycle samples were centrifugated. After centrifugation (Eppendorfcentrifuge for 3 min at 3000×g) the supernatants were processed for hemolysis measurements. For determination of hemolysis the Cyanmethemoglobin method was applied. Absorption was read at 540 nm using a Hewlett Packard spectrophotometer. Percentage hemolysis was determined by Equation 1, supra. Percentage hemolysis was taken as a measure for freeze-thaw damage.
Human erytirocytes were pre-treated at room temperature with 5 mM diamide for 1 h. After the incubation was completed the unreacted reagent was removed by a washing procedure and the cells were re-suspended in a freezing medium. Erythrocytes were frozen immediately or after three hours of incubation in the freezing medium to allow loading with glucose. Percentage hemolysis represents the freeze-thaw damage after 1 h freezing at −20° C. in a freezer.

Assay [3] deals with erythrocytes. The assay is described as follows: Assay of capacity for shape change (LPC-induced echinocytosis, microscopy). The assay is classed as cell-based, human. On the procedure: Microscopy. Cross-linked and reversed cells were prepared as described in the section on erythrocyte preparation, etc., with the addition of 0.5% bovine serum albumin to the solution prior microscopic examination. Cells were examined using an Nikon Optiphot, equipped with PlanApo 20×objective.
Assay of capacity for shape change. To induce echinocytosis ([…]), erythrocytes were incubated with 10μg/ml LPC for 2 min at room temperature. Erythrocytes were pretreated with 5 mM DTBP for 1 h and then subjected to 10 μg/ml LPC treatment. Microscopic examination of cell morphology was performed. Erythrocytes were pretreated with 5 mM DTBP for 1 h, reversed with 10 mM DTT for 20 min and then subjected to 10 μg/ml LPC treatment. Microscopic examination followed. Erythrocyte response to LPC of normal, cross-linked and reversed cells was compared.

For the next assay, the system named is Red cells. Description: Oxygen carrying ability (oxygen content by CO-oximeter). Format: cell-based, human. The note with it: cells subjected to CO-treatment. On the procedure:
A semi-quantitative measure of oxygen carrying ability by DTBP cross-linked and reversed cells was performed. Red cells cross linked with 5 mM DTBP for different incubation times and cells reversed with DTT (see above) were processed through a membrane oxygenator to replace CO with oxygen. Oxygen saturation of the cells was measured using a CO-oximeter. After the oxygenation, cells were subjected to deoxygenation under a stream of nitrogen for 30 min. Percentage oxygen was measured again by the CO-oximeter. Oxygen binding and releasing properties for cross-linked, reversed and normal cells were compared.
We measured oxygen content (Vol%O2) of cells subjected to cross-linking and reversal with a CO-oximeter 282. […] CO-treated and cross-linked cells with 5 mM DTBP for 5 h, which underwent re-oxygenation in the membrane oxygenator had oxygen content of 7.3 Vol%O2.

Assay [4] deals with erythrocytes. Description: Methemoglobin formation during freeze-drying. The assay is classed as cell-based. Conditions: CO-treated erythrocytes, FIG. 1. The text has this:
Freeze-drying of hemoglobin leads to the formation of significant amount of methemoglobin. Circular dichroism studies for samples of hemoglobin freeze-dried with or without protectant have shown that the absence of a protector weakly influences the confirmation in the vicinity of the heme and increases the helicity of protein chains (Thirion C et al., 1983). Freeze-drying hemoglobin without denaturing and oxidizing it was made possible by the use of carbohydrates (Labrude PB et al., 1980). […] Since red cell membrane is non-permeable to disaccharides and only lowly permeable to monosaccharides, this limits the use of carbohydrates as protectants for intracellular hemoglobin. We explored CO-treatment as a means to prevent methemoglobin formation during freeze-drying. CO-treatment stabilizes hemoglobin in the CO-hemoglobin form by liganding CO. […] To reverse the CO-treatment, a hollow fiber oxygenator can be used.

Assay [5] concerns Human erythrocytes. The assay is described as follows: cells. Format: cell-based. The note with it: Homo sapiens, Erythrocyte, read-out: hemolysis in distilled water after cross-linking reversal. On the procedure:
Packed human erythrocytes from healthy donors were obtained from the National Naval Medical Center (Bethesda, Md.) within 48 h of donation and used within 7 days. Packed erythrocytes were washed twice in phosphate buffer solution (PBS) then re-suspended in PBS (1 vol PBS:1 vol packed cells). The erythrocyte suspension (100 ml) was placed on ice and carbon monoxide (CO) was bubbled through it for 2 hours. Saturation with CO (100%) was achieved under these conditions as detected with a CO-oximeter. Erythrocytes were packed and cross-linked with DTBP at 4° C. for different incubation times (from 1 to 24 h; 9 vol cross-linking solution: 1 vol packed cells). The cross-linking solution was prepared by dissolving DTBP in PBS (pH 7.8). After incubation DTBP was removed by repeated washing of the red cells in PBS (IEC Centra centrifuge for 10 min at 1008×g). Reversal of the cross-linking was carried out at room temperature with the reducing agent dithioerythritol (DTT) at a concentration of 10 mM in PBS (9 vol reducing solution: 1 vol packed cells) for 20 min or as indicated in the figure legends. DTT was removed by repeated washing of the red cells in PBS (IEC Centra centrifuge for 10 min at 1008×g). CO-treatment was reversed at room temperature using a hollow fiber membrane oxygenator model Capiox 308. Erythrocytes were processed through the oxygenator for 1 h. Saturation with oxygen (92%) was reached as detected with a CO-oximeter.
Erythrocytes were cross-linked with DTBP at different concentrations for different incubation times. 1 ml of the erythrocyte suspension was taken out at regular incubation times centrifuged and DTBP was removed (Eppendorf centrifuge for 3 min at 3000×g). Distilled water (1 ml) was added to the remaining packed cells. After 30 min the cells were again centrifugated (Eppendorf centrifuge for 3 min at 3000×g), and the supernatants were processed for hemolysis measurements. For determination of hemolysis the cyanmethemoglobin method was applied (see Brown in “Hematology: principles and procedures” pp. 29-31 (Lea and Febiger, eds., 1984)). Absorbance was measured at 540 nm and percent hemolysis was determined by Equation (1), supra, where the control sample was lysed in distilled water.
Erythrocyte stability in distilled water was tested after crosslinking reversal as well. Red blood cells were first cross-linked with DTBP then treated with DTT at different concentrations (from 1 to 10 mM) for different incubation times (from 5 to 20 min). Hemolysis in distilled water was measured as described above.

Assay [6] concerns Human erythrocytes. The assay is described as follows: Osmotic fragility test. The assay is classed as cell-based. The note with it: cells treated for 1 h with 5 mM DTBP, reversed with DTT. The protocol: An osmotic fragility test (a common clinical test) was performed on erythrocytes cross-linked with 5 mM DTBP for different incubation times and on erythrocytes cross-linked and reversed with DTT. Briefly, 1 ml of the erythrocyte suspension was taken out at regular incubation times, centrifuged, and DTBP or DTT was removed (Eppendorf centrifuge for 3 min at 3000×g). 1 ml of solutions containing buffered sodium sodium chloride at different concentrations (from 1% to 0.1% NaCl in phosphate buffer) were added to the packed cells. After 30 min the samples were centrifugated (Eppendorf centrifuge for 3 min at 3000×g), and the supernatants were processed for hemolysis measurements.

In assay [7] the test system is Red blood cells. The assay is described as follows: Deformability measurements with an ektacytometer (Shear-scan, Osmo-scan). The assay is classed as cell-based, human. The note with it: DTBP cross-linked cells after treatment with DTT; Osmo-scan. The protocol: Red blood cells were cross-linked with 5 mM DTBP for 1 h. Cross-linking was reversed with 10 mM DTT for 20 min. Deformability measurements were made with fresh untreated, cross-linked, and reversed cells as well as with untreated packed cells stored in CPDA-1 for 6 weeks at 4° C. The effects of cross-linking and reversal on red blood cell deformability were measured with an ektacytometer (Technicon).
The ektacytometer is a laser diffraction viscometer described in detail by Bessiss and Mohandas. Intact red blood cells and ghosts suspended in solution produce a diffuse circular laser diffraction pattern. The instrument takes advantage of the fact that when a shear force is applied to the solution crossing the beam the cells align in the direction of shear and begin deforming into uniformly oriented ellipsoids. The laser diffraction pattern then takes on an ellipsoidal shape oriented 90° from the major elliptical cell axis, with the ratio of the long axis to the short axis length determined by the degree of cell deformation. A signal proportional to mean cellular ellipticity is derived from photometric measurement of this laser diffraction pattern in the two axis directions and is designated the deformability index (DI).
Two types of deformability profiles were generated in the present experiments. […] Shear-scans were run with 40 μl of concentrated cell suspension (80% hematocrit) mixed with 3.0 ml of 3.1% (w/v) polyvinylpyrrolidone (P, av-MW 360 kD) solution containing 138 mM NaCl, 6.34 mM Na2HPO4, 2 mM NaH2PO4, and 0.04% (w/v) NaN3 with pH=7.35±0.05, osmolality=290 mOsmol/kg (by freezing point depression), and viscosity=20 cp (assumed). Osmo-scans were run by continuous addition of this suspension medium containing 100 μl of cells to a PVP solution with a graded salt concentration. Salt gradients were made by addition of high salt PVP solution with 386 mM NaCI (osmolality=750 mOsmol/kg) to a low salt PVP solution with 2.5 mM NaCl (osmolality=40 mOsmol/kg). Conductance measurements of the cell suspension in the viscometer provided an indirect measure of osmolality, which was calculated from a standard calibration curve.
Data was recorded onto a computer, and curves were fitted and plotted using custom routines in Matlab (The Math Works Inc, Natick, Mass.). Shear scans were fitted with a polynomial of degree 6 from which the maximum DI (DImax) was calculated. Osmo-scans were fitted with a running average, and DImax was calculated within the range of 180-240 mOsmol/Kg, along with the osmolality corresponding to 1/2DImax at hypertonic salt concentrations (0′), where DI decreases with increasing intracellular viscosity secondary to cell shrinkage and increased hemoglobin concentration (see Mohandas et al., J. Clin. Invest. 66563-73(1980)). The osmolality corresponding to the minimum DI (Omin) at hypotonic salt concentrations, where DI falls due to cell swelling, was also calculated. The height of the small DI peak thought to be associated with the sudden availability of excess membrane for deformation as intracellular ions and water are lost in the lower range of hypotonic salt (63-125 mOsmol/Kg) concentrations was also recorded (see Clark et al., Blood 61 899-910 (1983)).

Assay [8] deals with Red blood cells. The assay is described as follows: Metabolic viability: ATP content of red blood cells over time. The assay is classed as cell-based, human. The note with it: cross-linked cells treated with 10 mM DTT prior to initial glucose exposure. On the procedure:
The metabolic viability of cross-linked cells was assayed by monitoring the production and depletion of ATP over time. DTBP cells were cross-linked in 5 mM DTBP 150 mM glucose for 5 hours at 4° C. The cells were then washed 3 times and incubated in 150 mM glucose for an additional 19 hrs. After washing to remove the glucose the cells were incubated at 4° C. in PBS for 72 hrs before being returned to 150 mM glucose for the final 24 hr incubation. At each time point cells were removed, washed, and spectrophotometrically assayed for ATP as described in the text. The glucose controls were cells treated in the same manor but without crosslinking, and the control cells are cells without exposure to glucose.

In the assay with Human erythrocytes [1] (Crosslinking with 5 mM diamide, 5 μm pore filter), `CN(C)C(=O)/N=N/C(=O)N(C)C` [diamide] gave a Relative filtration index of 0.71 ± 0.03. Besides, the “Percentage hemolysis (freeze-thaw damage)” value with Human erythrocytes [2] was “cryoprotection of erythrocytes”.

With lysolecithin [LPC], the “shape change of normal red blood cells” value with erythrocytes [3] (10 μg/ml LPC, normal cells) is listed as “shape change from discocytes to echinocytes”.

For the compound `[C-]#[O+]` [CO, carbon monoxide], the oxygen content with Red cells is 0.7 Vol%O2. Besides, in the assay on erythrocytes [4], the “methemoglobin formation during freeze-drying” value is recorded as “prevents hemoglobin oxidation to methemoglobin”.

As for `O[C@H](CS)[C@@H](O)CS` [DTT, dithioerythritol], the Relative filtration index in the assay with Human erythrocytes [1] (diamide-crosslinked cells, reversal of the cross-linking with 5 mM dithioerythritol) is given as 0.83 ± 0.02. For the same compound, the Relative filtration index in the assay with Human erythrocytes [1] (diamide-crosslinked cells, reversal of the cross-linking with 10 mM dithioerythritol) came to 0.90 ± 0.01. The hemolysis at 10000 µM with Human erythrocytes [5] amounted to 100%. Further, the “reversal of the effect of DTBP on osmotic fragility” value in the assay with Human erythrocytes [6] is “complete reversal”. Also, in the assay on Red blood cells [7], the “DImax and O′ after reversal” value is “restored these indices towards normal values”; the “Omin (osmolality corresponding to the minimum DI)” value came to 128 mOsmol/Kg. Besides, in the assay with erythrocytes [3] (5 mM DTBP 1 h, 10 mM DTT 20 min, then 10 μg/ml LPC), the “reversal of shape stabilizing action of DTBP” value is listed as “completely reversible”. In the assay on Red blood cells [8], the “amount of ATP present after reversal” value is on record as “did not change the amount of ATP present”.
